Ends that are not written are not given here.
What was measured:
[1] = system: Group A Streptococcus (NZ131); assay type: cell-based
Method: (§1) As a positive control, synthetic LL-37 was applied to separate wells. After incubation at 37° C. overnight, the inhibition zones were recorded by CCD camera and diameters measured. To evaluate antimicrobial activity against wild-type S. aureus (clinical isolate), and enteroinvasive E. coli 029, both radial diffusion and solution killing assays were done. Radial diffusion assays were done as described for S. aureus mprF. Solution killing was done in 10% TSB in 10 mM PB (TSB=30 gm/L Tryptic Soy Broth, Sigma, St Louis Mo.; 20×PB=27.6 g/L NaH2PO4-H2O, 53.65 g/L Na2HPO4-7H2O, pH 7.4). Bacteria in log-phase growth were suspended to 1×10^6 cells/ml, peptide added and incubated at 37° C. for 2 hr. Bacteria were then plated on TSB agar (TSB, Bactoagar 13 g/L, Becton Dickinson, Sparks Md.) for direct colony count and determination of CFU.
(§2) Activity against Group A Streptococcus (NZ131) was done only in solution assay as described. To evaluate antimicrobial activity in high salt conditions, solution assay was done in 10% TSB/10 mM PBS with several salt concentrations (concentration of NaCl; 10, 50, 100, 150, 300, 500 mM). Action against the C. albicans was determined in Dixon medium (0.6% Peptone, 4% Malt Extract, 1% Glucose, 0.1% Ox Bile, 1% Tween-80) in sterile 96-well microtiter plates (Corning Inc., Corning, N.Y.) at a final volume of […]. The assay mixtures contained 1-2.5×10^4 […] freshly grown Candida, 20% Dixon medium, 0.6 mM phosphate buffer pH 7, and […] chloramphenicol. Microtiter plates were incubated at 37° C. for 24 h with peptides, then plated on Dixon agar to determine the MFC (minimum fungicide concentration).

[2] = system: enteroinvasive E. coli 029; test: Radial diffusion assay against E. coli 029; assay type: cell-based; conditions: for Action against E. coli compared to LL-37: synthetic peptides
Method: (§3) Antimicrobial assays. For screening of antimicrobial activity of HPLC fractions, radial diffusion assay was used. Lyophilized HPLC fractions were dissolved in DW (GibcoBRL, Grand Island, N.Y.), and tested against Staphylococcus aureus mprF. Thin plates (1 mm) of 1% agarose in 0.5% tryptone containing approximately […] of S. aureus mprF were used. 1 mm wells were punched in the plates and […] of samples dissolved in tissue culture grade sterile water were loaded in each well.
as §1

[3] = system: wild-type S. aureus (clinical isolate); test: Radial diffusion assay against wild-type S. aureus; assay type: cell-based, Staphylococcus aureus; conditions: for Action against wild-type S. aureus compared to LL-37: synthetic peptides
Method: as §3, §1

C. albicans ATCC 14053 = test: Liquid assay against C. albicans (minimum fungicide concentration); assay type: cell-based, Candida albicans; conditions: for Fungicidal activity against Candida albicans compared to LL-37: synthetic peptides
Method: as §2

[4] = system: Staphylococcus aureus mprF; test: Radial diffusion assay against S. aureus mprF; assay type: cell-based
Method: as §3, §1

human erythrocytes = test: Hemolysis assay on human whole blood; assay type: cell-based
Method: Hemolysis Assay. Hemolytic activity was determined on human whole blood. Freshly obtained whole blood was washed 3× in PBS and resuspended in PBS at its original volume containing peptides at indicated concentrations. Samples were incubated at 37° C. for 1.5 to 3 h, and hemolysis determined by centrifuging at 300 g and measurement of the absorbance of the supernatant at 578 nm. Hemolytic activity of each peptide was expressed as the percentage of total hemoglobin released compared to that released by incubating with 0.1% Triton X-100.

S. aureus = test: Release of cytoplasmic beta-galactosidase (membrane disruption); assay type: cell-based; conditions: with carbonate versus without
Description: Release of cytoplasmic expressed beta-galactosidase was measure from bacteria with and without the addition of NaHCO3.

Group B Strep (GBS) = test: Group B Strep susceptibility to CRAMP; assay type: cell-based; conditions: 16 uM peptide; without NaHCO3
Staphylococcus aureus = test: S. aureus growth inhibition (turbidity OD600) with or without carbonate; assay type: cell-based; conditions: for Susceptibility of S. aureus: 16 uM peptide; for Effect of NaHCO3 on minimal inhibitory concentration (MIC) against Staph aureus: 20% TSB, 1 mM NaH2PO4, 50 mM NaHCO3, pH 7.4
Method: Carbonate was identified as the antimicrobial enhancing factor in mammalian tissue culture media via serial deletion of Minimal Essential Media (MEM) components. Staphylococcus aureus was cultured in 20% Tryptic Soy Broth (TSB), 10% Fetal Bovine Serum (FBS) and 70% of various media or media components with, or without, 32 μM LL-37 to assess which components could increase antimicrobial activity. MEM buffers are 2200 mg/L NaHCO3, 140 mg/L NaH2PO4 and 6800 mg/L NaCl. MEM salts are 200 mg/L CaCl2, 400 mg/L KCl, 98 mg/L MgSO4. All solutions were adjusted to pH 7.4. Bacterial growth was measured as the change in turbidity at OD600 and percent inhibition was determined by comparing bacterial growth in the presence of peptide to that in the absence of peptide. […]
Inhibition of Staph aureus growth in the presence of various concentrations of human (LL-37), murine (CRAMP) and porcine (PR-39). Cathelicidin antimicrobial peptides was measured in 20% TSB, 1 mM NaH2PO4, with, or without, 50 mM NaHCO3 at pH 7.4. […]

E. coli = E. coli susceptibility to CRAMP with or without NaHCO3; assay type: cell-based; conditions: 16 uM peptide
antigen presentation = test: Antigen presentation in vitro; assay type: cell-based
Salmonella = Salmonella susceptibility to CRAMP; assay type: cell-based; conditions: 16 uM peptide; without NaHCO3

Substance: KRIVQRIKDFLRNLVPRTES (listed as Homo sapiens) [KR-20, 20 amino acid cathelicidin derivative]
- Liquid Assay minimal concentration required to kill GAS (NZ131) [1]: 4 μm
- Radial Diffusion Assay minimal inhibitory concentration (MIC), E. coli (029) [2]: >64 μm
- Radial Diffusion Assay minimal inhibitory concentration (MIC), S. aureus (wt) [3]: >64 μm
- Liquid Assay minimal concentration required to kill C. albicans ATCC 14053 (C. albicans ATCC 14053): 10 μm
- Fungicidal activity against Candida albicans compared to LL-37 (C. albicans ATCC 14053): increased fungicidal activity
- Radial Diffusion Assay minimal inhibitory concentration (MIC), S. aurus MprF [4]: 16 μm
- % hemolysis (human erythrocytes): 0%

Substance: SSLLEKGLDGAKKAVGGLGKLGKDAVEDLESVGKGAVHDVKDVLDSV (listed as Homo sapiens) [DCD, dermcidin antimicrobial peptide of human sweat, reference compound]
- Liquid Assay minimal concentration required to kill GAS (NZ131) [1]: >64 μm
- Radial Diffusion Assay minimal inhibitory concentration (MIC), E. coli (029) [2]: >64 μm
- Radial Diffusion Assay minimal inhibitory concentration (MIC), S. aureus (wt) [3]: >64 μm
- Liquid Assay minimal concentration required to kill C. albicans ATCC 14053 (C. albicans ATCC 14053): >32 μm
- Radial Diffusion Assay minimal inhibitory concentration (MIC), S. aurus MprF [4]: >64 μm

Substance: Polymyxin B
- Leakage of cytoplasmic protein (beta-galactosidase) from S. aureus (S. aureus): greater leakage

Substance: CRAMP
- Susceptibility of Group B Strep (GBS) (Group B Strep (GBS)): susceptible
- Susceptibility of S. aureus (Staphylococcus aureus; with 50 mM NaHCO3): susceptible
- Susceptibility of S. aureus (Staphylococcus aureus; without 50 mM NaHCO3): resistant
- Effect of NaHCO3 on minimal inhibitory concentration (MIC) against Staph aureus (Staphylococcus aureus): greatly reduced
- Susceptibility of E. coli (E. coli; with 50 mM NaHCO3): susceptible
- Susceptibility of E. coli (E. coli; without 50 mM NaHCO3): resistant
- Antigen presentation in vitro (antigen presentation): inhibits antigen presentation
- Susceptibility of Salmonella (Salmonella): susceptible

Substance: KSKEKIGKEFKRIVQRIKDFLRNLVPRTES [KS-30]
- Liquid Assay minimal concentration required to kill GAS (NZ131) [1]: 4 μm
- Radial Diffusion Assay minimal inhibitory concentration (MIC), E. coli (029) [2]: 8 μm
- Action against E. coli compared to LL-37 [2]: greatly increased action
- Radial Diffusion Assay minimal inhibitory concentration (MIC), S. aureus (wt) [3]: 16 μm
- Action against wild-type S. aureus compared to LL-37 [3]: greatly increased action
- Liquid Assay minimal concentration required to kill C. albicans ATCC 14053 (C. albicans ATCC 14053): 2 μm
- Fungicidal activity against Candida albicans compared to LL-37 (C. albicans ATCC 14053): increased fungicidal activity
- Radial Diffusion Assay minimal inhibitory concentration (MIC), S. aurus MprF [4]: 8 μm
- % hemolysis (human erythrocytes): .23%

Substance: PR-39: porcine cathelicidin antimicrobial peptide (RRRPRPPYLPRPRPPPFFPPRLPPRIPPGFPPRFPPRFP; UniProt P80054 131-169, looked up)
- Effect of NaHCO3 on minimal inhibitory concentration (MIC) against Staph aureus (Staphylococcus aureus): greatly reduced

Substance: RKSKEKIGKEFKRIVQRIKDFLRNLVPRTES (listed as Homo sapiens) [RK-31, cathelicidin peptide generated from LL-37]
- Liquid Assay minimal concentration required to kill GAS (NZ131) [1]: 8 μm
- Radial Diffusion Assay minimal inhibitory concentration (MIC), E. coli (029) [2]: 8 μm
- Action against E. coli compared to LL-37 [2]: greatly increased action
- Radial Diffusion Assay minimal inhibitory concentration (MIC), S. aureus (wt) [3]: 16 μm
- Action against wild-type S. aureus compared to LL-37 [3]: greatly increased action
- Liquid Assay minimal concentration required to kill C. albicans ATCC 14053 (C. albicans ATCC 14053): 4 μm
- Fungicidal activity against Candida albicans compared to LL-37 (C. albicans ATCC 14053): increased fungicidal activity
- Radial Diffusion Assay minimal inhibitory concentration (MIC), S. aurus MprF [4]: 8 μm
- % hemolysis (human erythrocytes): 6%

— patent US7776823B2, “Human cathelicidin antimicrobial peptides” (priority 2003, dated 2010)
